# Measurements as given in article PMC8752738, “A propolis-derived small molecule ameliorates metabolic syndrome in obese mice by targeting the CREB/CRTC2 transcriptional complex” (Nature Communications, 2022).
# Several values for one entry are separate records, joined by “and”; a condition that tells them apart may be missing. Equal entries are not always repeated.
# Experiment: Metabolic chamber assay
# Type: in vivo, mouse
# Parameters: AUC of RER / AUC of RER, group mean: unit not given beside the values
# Settings: for RER of DIO: DIO ip APC, single animals
# Description: Metabolic parameters of mice were determined using Columbus Instruments Comprehensive Lab Animal Monitoring System (CLAMS). The area unit under the curve (AUC) of respiratory exchange ratio (RER) and ambulatory activity (X-TOT) were calculated using Graphpad prism 8.0.
smiles,measurement,setting,value
"CC(C)=CCc1cc(C=CC(=O)O)cc(CC=C(C)C)c1O [APC, 3,5-diprenyl-4-hydroxycinnamic acid]",RER of DIO,"interval 41, hour 15.0",0.866 and 0.871 and 0.84 and 0.828
same,RER of DIO,"interval 42, hour 15.4",0.814 and 0.86 and 0.83 and 0.806
same,RER of DIO,"interval 43, hour 15.8",0.858 and 0.883 and 0.843 and 0.83
same,RER of DIO,"interval 44, hour 16.1",0.887 and 0.859 and 0.818 and 0.83
same,RER of DIO,"interval 45, hour 16.5",0.883 and 0.858 and 0.81 and 0.824
same,RER of DIO,"interval 46, hour 16.9",0.827 and 0.816 and 0.835 and 0.797
same,RER of DIO,"interval 47, hour 17.2",0.845 and 0.787 and 0.84 and 0.811
same,RER of DIO,"interval 48, hour 17.6",0.803 and 0.8 and 0.812 and 0.779
same,RER of DIO,"interval 49, hour 18.0",0.826 and 0.77 and 0.786 and 0.808
same,RER of DIO,"interval 50, hour 18.3",0.8 and 0.765 and 0.776 and 0.827
same,RER of DIO,"interval 51, hour 18.7",0.816 and 0.804 and 0.782 and 0.849
same,RER of DIO,"interval 52, hour 19.1",0.748 and 0.846 and 0.834 and 0.782
same,RER of DIO,"interval 53, hour 19.4",0.829 and 0.795 and 0.809 and 0.784
same,RER of DIO,"interval 54, hour 19.8",0.795 and 0.796 and 0.8 and 0.821
same,RER of DIO,"interval 55, hour 20.2",0.793 and 0.823 and 0.818 and 0.827
same,RER of DIO,"interval 56, hour 20.5",0.819 and 0.827 and 0.837 and 0.791
same,RER of DIO,"interval 57, hour 20.9",0.849 and 0.806 and 0.795 and 0.788
same,RER of DIO,"interval 58, hour 21.3",0.795 and 0.771 and 0.783 and 0.79
same,RER of DIO,"interval 59, hour 21.6",0.833 and 0.785 and 0.748 and 0.783
same,RER of DIO,"interval 60, hour 22.0",0.787 and 0.839 and 0.786 and 0.789
same,RER of DIO,"interval 61, hour 22.4",0.78 and 0.845 and 0.792 and 0.77
same,RER of DIO,"interval 62, hour 22.7",0.799 and 0.852 and 0.77 and 0.81
same,RER of DIO,"interval 63, hour 23.1",0.815 and 0.784 and 0.793 and 0.796
same,RER of DIO,"interval 64, hour 23.5",0.868 and 0.804 and 0.79 and 0.793
same,RER of DIO,"interval 65, hour 23.8",0.88 and 0.841 and 0.837 and 0.825
same,RER of DIO,"interval 66, hour 24.2",0.846 and 0.879 and 0.838 and 0.813
same,RER of DIO,"interval 67, hour 24.6",0.838 and 0.875 and 0.807 and 0.8
same,RER of DIO,"interval 68, hour 24.9",0.86 and 0.913 and 0.847 and 0.857
same,RER of DIO,"interval 69, hour 25.3",0.873 and 0.865 and 0.838 and 0.896
same,RER of DIO,"interval 70, hour 25.7",0.843 and 0.89 and 0.8 and 0.847
same,AUC of RER,"WT mice, individual mice",64.64 and 64.37 and 63.27 and 66.85
same,Twenty-four hours respiratory exchange ratio (RER),"WT mice, individual mice, reading 6",0.933 and 0.928 and 0.895 and 0.97
same,Twenty-four hours respiratory exchange ratio (RER),"WT mice, individual mice, reading 7",0.939 and 0.96 and 0.973 and 0.974
same,Twenty-four hours respiratory exchange ratio (RER),"WT mice, individual mice, reading 8",0.918 and 0.961 and 0.922 and 0.982
same,Twenty-four hours respiratory exchange ratio (RER),"WT mice, individual mice, reading 9",0.913 and 0.964 and 0.926 and 0.986
same,Twenty-four hours respiratory exchange ratio (RER),"WT mice, individual mice, reading 10",0.969 and 0.971 and 0.952 and 0.978
same,Twenty-four hours respiratory exchange ratio (RER),"WT mice, individual mice, reading 11",0.955 and 0.975 (2×) and 0.936
same,Twenty-four hours respiratory exchange ratio (RER),"WT mice, individual mice, reading 12",0.989 and 0.966 and 0.963 and 1.016
same,Twenty-four hours respiratory exchange ratio (RER),"WT mice, individual mice, reading 13",0.967 and 0.988 and 0.98 and 0.99
same,Twenty-four hours respiratory exchange ratio (RER),"WT mice, individual mice, reading 14",0.975 and 0.999 and 0.954 and 1.005
same,Twenty-four hours respiratory exchange ratio (RER),"WT mice, individual mice, reading 15",0.988 and 0.994 and 0.959 and 0.969
same,Twenty-four hours respiratory exchange ratio (RER),"WT mice, individual mice, reading 16",1.003 and 0.991 and 0.965 and 0.97
same,Twenty-four hours respiratory exchange ratio (RER),"WT mice, individual mice, reading 17",1.006 and 0.99 and 0.951 and 0.989
same,Twenty-four hours respiratory exchange ratio (RER),"WT mice, individual mice, reading 18",0.963 and 0.961 and 0.974 and 1.025
same,Twenty-four hours respiratory exchange ratio (RER),"WT mice, individual mice, reading 19",0.958 and 0.976 and 0.946 and 1.032
same,Twenty-four hours respiratory exchange ratio (RER),"WT mice, individual mice, reading 20",0.939 and 0.961 and 1.004 and 1.024
same,Twenty-four hours respiratory exchange ratio (RER),"WT mice, individual mice, reading 21",0.991 and 1.018 and 0.961 and 0.993
same,Twenty-four hours respiratory exchange ratio (RER),"WT mice, individual mice, reading 22",0.946 and 0.962 and 0.958 and 0.989
same,Twenty-four hours respiratory exchange ratio (RER),"WT mice, individual mice, reading 23",0.971 and 1.012 and 0.999 and 0.985
same,Twenty-four hours respiratory exchange ratio (RER),"WT mice, individual mice, reading 24",1.006 and 0.997 and 0.993 and 1.002
same,Twenty-four hours respiratory exchange ratio (RER),"WT mice, individual mice, reading 25",0.971 and 0.965 and 0.961 and 0.984
same,Twenty-four hours respiratory exchange ratio (RER),"WT mice, individual mice, reading 26",0.941 and 0.984 and 1.005 and 0.996
same,Twenty-four hours respiratory exchange ratio (RER),"WT mice, individual mice, reading 27",0.981 and 0.968 and 0.989 and 0.998
same,Twenty-four hours respiratory exchange ratio (RER),"WT mice, individual mice, reading 28",0.956 and 0.954 and 0.968 and 0.984
same,Twenty-four hours respiratory exchange ratio (RER),"WT mice, individual mice, reading 29",0.975 and 0.977 and 0.994 and 1.026
same,Twenty-four hours respiratory exchange ratio (RER),"WT mice, individual mice, reading 30",0.994 and 0.963 and 1.014 and 1.033
same,"AUC of RER, group mean","WT mice, n=4",64.78
same,respiratory exchange ratio (RER) and energy expenditure,db/db mice,significantly elevated
